According to patent US20090062251A1, “Novel Compounds 002” (ASTRAZENECA AB, priority 2007, published 2009):

What was measured:
[1] = molecular target: T1, Human CB1 receptor (hCB1) (Homo sapiens, UniProt P21554); assay: hCB1 GTPγS binding; assay type: biochemical; details: for EC50: hCB1 membranes, GTPγ35S, 10-point dose-response; for Emax: maximal stimulated binding determined with 10 μM Win 55,212-2
T1 construct: purchased Receptor Biology
Outline: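 Human CB1 membranes in 50 mM Hepes, 100 mM NaCl, 1 mM EDTA, 5 mM MgCl2, 0.1% BSA, pH 7.4 were preincubated 5 min with GDP (30 μM final). Basal and maximal binding were defined without or with 10 μM Win 55,212-2; incubation 60 min RT; filter-bound radioactivity counted. Antagonist reversal used fixed antagonist with agonist curve, or fixed agonist with antagonist curve.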

[2] = molecular target: T1, Human CB1 receptor (hCB1); assay: hCB1 receptor binding (3H-CP55,940 displacement); details: hCB1 membranes, Ki=IC50/(1+[rad]/Kd)
Outline: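 Human CB1 membranes in Tris buffer pH 7.4 with 2.5 mM EDTA, 5 mM MgCl2 and 0.5 mg/mL fatty-acid-free BSA, incubated 60 min at room temperature with [3H]CP55,940.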

T1 sequence (P21554 whole entry): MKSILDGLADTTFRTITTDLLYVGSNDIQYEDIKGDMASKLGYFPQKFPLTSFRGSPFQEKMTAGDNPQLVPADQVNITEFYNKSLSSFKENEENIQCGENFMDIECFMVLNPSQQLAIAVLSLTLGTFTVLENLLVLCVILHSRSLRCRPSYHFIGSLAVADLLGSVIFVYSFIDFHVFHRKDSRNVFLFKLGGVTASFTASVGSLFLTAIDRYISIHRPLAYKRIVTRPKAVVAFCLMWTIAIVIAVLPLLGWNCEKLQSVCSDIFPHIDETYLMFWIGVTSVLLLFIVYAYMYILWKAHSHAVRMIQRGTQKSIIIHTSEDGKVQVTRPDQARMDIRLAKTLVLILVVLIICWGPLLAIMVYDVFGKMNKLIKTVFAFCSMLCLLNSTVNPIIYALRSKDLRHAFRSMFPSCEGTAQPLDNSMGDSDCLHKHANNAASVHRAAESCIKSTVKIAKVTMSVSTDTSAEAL

## CCN(CC(=O)NCCF)C(=O)c1ccc2c(c1)c1c(n2S(=O)(=O)CC)CCC(C2CCOCC2)C1 (stereo not drawn) [N-ethyl-9-ethylsulfonyl-N-(2-fluoroethylcarbamoylmethyl)-6-(oxan-4-yl)-5,6,7,8-tetrahydrocarbazole-3-carboxamide]
[1]
  EC50: 12.9 nM
  Emax: 107%
[2]
  Ki: 12.9 nM

## CCN(CC(=O)NCCCF)C(=O)c1ccc2c(c1)c1c(n2S(=O)(=O)CC)CCC(C2CCOCC2)C1 (stereo not drawn) [N-ethyl-9-ethylsulfonyl-N-(3-fluoropropylcarbamoylmethyl)-6-(oxan-4-yl)-5,6,7,8-tetrahydrocarbazole-3-carboxamide]
[1]
  EC50: 33 nM
  Emax: 120%
[2]
  Ki: 24 nM

## CCN(CC(=O)NCCCO)C(=O)c1ccc2c(c1)c1c(n2S(=O)(=O)CC)CCC(C2CCOCC2)C1 (stereo not drawn) [N-ethyl-9-ethylsulfonyl-N-(3-hydroxypropylcarbamoylmethyl)-6-(oxan-4-yl)-5,6,7,8-tetrahydrocarbazole-3-carboxamide]
[1]
  EC50: 53.3 nM
  Emax: 126%
[2]
  Ki: 45.8 nM

## CCN(CC(=O)NC1COC1)C(=O)c1ccc2c(c1)c1c(n2C)CCC(C2CCOCC2)C1 (stereo not drawn) [N-ethyl-9-methyl-6-(oxan-4-yl)-N-(oxetan-3-ylcarbamoylmethyl)-5,6,7,8-tetrahydrocarbazole-3-carboxamide]
[1]
  EC50: 128 nM
  Emax: 117%
[2]
  Ki: 63 nM

## CCN(CC(=O)NC(C)C)C(=O)c1ccc2c(c1)c1c(n2C)CCC(C2CCOCC2)C1 (stereo not drawn) [N-ethyl-9-methyl-6-(oxan-4-yl)-N-(propan-2-ylcarbamoylmethyl)-5,6,7,8-tetrahydrocarbazole-3-carboxamide]
[1]
  EC50: 41.7 nM
  Emax: 123%
[2]
  Ki: 31.3 nM

## CCN(CC(=O)N[C@@H]1CCOC1)C(=O)c1ccc2c(c1)c1c(n2C)CCC(C2CCOCC2)C1 (stereo partly drawn) [N-ethyl-9-methyl-6-(oxan-4-yl)-N-[[(3R)-oxolan-3-yl]carbamoylmethyl]-5,6,7,8-tetrahydrocarbazole-3-carboxamide]
[1]
  EC50: 525 nM
  Emax: 127%
[2]
  Ki: 218 nM

## CCN(CC(=O)N[C@H]1CCOC1)C(=O)c1ccc2c(c1)c1c(n2C)CCC(C2CCOCC2)C1 (stereo partly drawn) [N-ethyl-9-methyl-6-(oxan-4-yl)-N-[[(3S)-oxolan-3-yl]carbamoylmethyl]-5,6,7,8-tetrahydrocarbazole-3-carboxamide]
[1]
  EC50: 100 nM
  Emax: 122%
[2]
  Ki: 58.1 nM

## CCN(CC(=O)NC)C(=O)c1ccc2c(c1)c1c(n2C)CCC(C2CCOCC2)C1 (stereo not drawn) [N-ethyl-9-methyl-N-(methylcarbamoylmethyl)-6-(oxan-4-yl)-5,6,7,8-tetrahydrocarbazole-3-carboxamide]
[1]
  EC50: 342 nM
  Emax: 116%
[2]
  Ki: 140 nM

## CCN(CC(=O)NCCOC)C(=O)c1ccc2c(c1)c1c(n2C)CCC(C2CCOCC2)C1 (stereo not drawn) [N-ethyl-N-(2-methoxyethylcarbamoylmethyl)-9-methyl-6-(oxan-4-yl)-5,6,7,8-tetrahydrocarbazole-3-carboxamide]
[1]
  EC50: 457 nM
  Emax: 113%
[2]
  Ki: 219 nM

## CCN(CCCCO)C(=O)c1ccc2c(c1)c1c(n2C)CCC(C2CCOCC2)C1 (stereo not drawn) [N-ethyl-N-(4-hydroxybutyl)-9-methyl-6-(oxan-4-yl)-5,6,7,8-tetrahydrocarbazole-3-carboxamide]
[1]
  EC50: 275 nM
  Emax: 122%
[2]
  Ki: 72.3 nM

## CCNC(=O)CN(CC)C(=O)c1ccc2c(c1)c1c(n2CCF)CCC(C2CCOCC2)C1 (stereo not drawn) [N-ethyl-N-(ethylcarbamoylmethyl)-9-(2-fluoroethyl)-6-(oxan-4-yl)-5,6,7,8-tetrahydrocarbazole-3-carboxamide]
[1]
  EC50: 438 nM
  Emax: 109%
[2]
  Ki: 202 nM

## CCNC(=O)CN(CC)C(=O)c1ccc2c(c1)c1c(n2C)CCC(C2CCOCC2)C1 (stereo not drawn) [N-ethyl-N-(ethylcarbamoylmethyl)-9-methyl-6-(oxan-4-yl)-5,6,7,8-tetrahydrocarbazole-3-carboxamide]
[1]
  EC50: 33.1 nM
  Emax: 121%
[2]
  Ki: 17.4 nM

## CCNC(=O)CN(CC)C(=O)c1ccc2c(c1)c1c(n2C(=O)N(C)C)CCC(C2CCOCC2)C1 (stereo not drawn) [N-ethyl-N-(ethylcarbamoylmethyl)-N′,N′-dimethyl-6-(oxan-4-yl)-5,6,7,8-tetrahydrocarbazole-3,9-dicarboxamide]
[1]
  EC50: > 30000 nM
  Emax: > 42%
[2]
  Ki: > 3480 nM

## CCN(CCCC(=O)NCCF)C(=O)c1ccc2c(c1)c1c(n2C)CCC(C2CCOCC2)C1 (stereo not drawn) [N-ethyl-N-[3-(2-fluoroethylcarbamoyl)propyl]-9-methyl-6-(oxan-4-yl)-5,6,7,8-tetrahydrocarbazole-3-carboxamide]
[1]
  EC50: 9.2 nM
  Emax: 135%
[2]
  Ki: 10.1 nM

## CCN(CC(=O)NC[C@@H](C)O)C(=O)c1ccc2c(c1)c1c(n2C)CCC(C2CCOCC2)C1 (stereo partly drawn) [N-ethyl-N-[[(2R)-2-hydroxypropyl]carbamoylmethyl]-9-methyl-6-(oxan-4-yl)-5,6,7,8-tetrahydrocarbazole-3-carboxamide]
[1]
  EC50: 318 nM
  Emax: 124%
[2]
  Ki: 182 nM

## CCS(=O)(=O)n1c2c(c3cc(C(=O)N4CCC(O)CC4)ccc31)CC(C1CCOCC1)CC2 (stereo not drawn) [[9-ethylsulfonyl-6-(oxan-4-yl)-5,6,7,8-tetrahydrocarbazol-3-yl]-(4-hydroxy-1-piperidyl)methanone]
[1]
  EC50: 352 nM
  Emax: 107%
[2]
  Ki: 155 nM
